Source: patent publication US4031211A, “Adriamycin esters, their preparation and use” (priority 1975, dated 1977)
Read-outs that look alike come from different tables or passages of the source.

Legend:
[1] = system: Ascites sarcoma 180; experiment: Antitumor effect on ascites sarcoma 180 in mice; settings: for LTS (long term survivors, > 60 days) / TC (median survival time as compared to untreated controls) / TOX (mice which showed toxic lesions at the autopsy): Table 1
Experimental: (§1) The compounds according to the invention were tested on several in vitro systems and experimental mouse tumors, in comparison with adriamycin.

[2] = system: L 1210 leukemia; experiment: Antitumor effect on L 1210 leukemia in mice
Experimental: as §1

[3] = system: Gross leukemia; experiment: Antitumor effect on Gross leukemia in mice; settings: for TC (median survival time as compared to untreated controls) / TOX (mice which showed toxic lesions at the autopsy): Table 1
Experimental: as §1

[4] = system: solid sarcoma 180; settings: Table 2, i.v. per 5 days
Experimental: as §1

[5] = system: experimental mouse tumors; experiment: Antitumor/therapeutic activity and toxicity in experimental mouse tumors, overall statements; type: in vivo
[6] = Table 4, i.p. on day 1, 2 mg./kg.
[7] = Table 4, i.p. on day 1, 4 mg./kg.
[8] = Table 4, i.p. on day 1, 8 mg./kg.
[9] = Table 1, first experiment, ip, day 1, 0.2 mg./kg.
[10] = Table 1, first experiment, ip, day 1, 1 mg./kg.
[11] = Table 1, first experiment, ip, day 1, 5 mg./kg.
[12] = Table 1, first experiment, ip, day 1, 10 mg./kg.
[13] = Table 1, second experiment, ip, day 1, 10 mg./kg.
[14] = Table 1, second experiment, ip, day 1, 12 mg./kg.
[15] = Table 1, second experiment, ip, day 1, 15 mg./kg.
[16] = Table 4, i.p. on day 1, 10 mg./kg.
[17] = Table 5, second experiment, iv, days 1,2,3, 3.5 mg./kg.

In the case of `COc1cccc2c1C(=O)c1c(O)c3c(c(O)c1C2=O)C[C@@](O)(C(=O)CO)C[C@@H]3O[C@H]1C[C@H](N)[C@H](O)[C@H](C)O1` [Adriamycin], the “LTS (long term survivors, > 60 days)” value ([1]; ip, day 1, 1 mg./kg.) was 3/10, the “TC (median survival time as compared to untreated controls)” value ([1]; ip, day 1, 1 mg./kg.) was 243% and the “TOX (mice which showed toxic lesions at the autopsy)” value ([1]; ip, day 1, 1 mg./kg.) was 0/10. For the same molecule, the “LTS (long term survivors, > 60 days)” value ([1]; ip, day 1, 5 mg./kg.) was 3/10, the “TC (median survival time as compared to untreated controls)” value ([1]; ip, day 1, 5 mg./kg.) was 150% and the “TOX (mice which showed toxic lesions at the autopsy)” value ([1]; ip, day 1, 5 mg./kg.) was 0/10. The LTS ([1]; Table 3, ip, day 1, 2 mg./kg.) was 1/10, the TC ([1]; Table 3, ip, day 1, 2 mg./kg.) was 203% and the LTS ([1]; Table 3, ip, day 1, 4 mg./kg.) was 2/10. The TC ([1]; Table 3, ip, day 1, 4 mg./kg.) was 242%, the LTS ([1]; Table 3, ip, day 1, 8 mg./kg.) was 2/10 and the TC ([1]; Table 3, ip, day 1, 8 mg./kg.) was 127%. For the same molecule, the TOX ([1]; Table 3, ip, day 1, 8 mg./kg.) was 8/10, the LTS [1, 6] was 4/10 and the TC [1, 6] was 271%. For the same molecule, the LTS [1, 7] was 5/10, the TC [1, 7] was 493% and the TOX [1, 7] was 1/10. The LTS [1, 8] was 3/10, the TC [1, 8] was 317% and the TOX [1, 8] was 4/10. The LTS ([1]; Table 5, ip, day 1, 2 mg./kg.) was 4/10, the TC ([1]; Table 5, ip, day 1, 2 mg./kg.) was 271% and the LTS ([1]; Table 5, ip, day 1, 4 mg./kg.) was 5/10. For the same molecule, the TC ([1]; Table 5, ip, day 1, 4 mg./kg.) was 493%, the TOX ([1]; Table 5, ip, day 1, 4 mg./kg.) was 1/10 and the LTS ([1]; Table 5, ip, day 1, 8 mg./kg.) was 3/10. For the same molecule, the TC ([1]; Table 5, ip, day 1, 8 mg./kg.) was 317%, the TOX ([1]; Table 5, ip, day 1, 8 mg./kg.) was 4/10 and the “TC (median survival time as compared to untreated controls)” value [2, 9] was 111%. The “TC (median survival time as compared to untreated controls)” value [2, 10] was 133%, the “TC (median survival time as compared to untreated controls)” value [2, 11] was 139% and the “TC (median survival time as compared to untreated controls)” value [2, 12] was 150%. For the same molecule, the “TOX (mice which showed toxic lesions at the autopsy)” value [2, 12] was 3/10, the “LTS (long term survivors, > 60 days)” value [2, 13] was 1/10 and the “TC (median survival time as compared to untreated controls)” value [2, 13] was 139%. For the same molecule, the “TOX (mice which showed toxic lesions at the autopsy)” value [2, 13] was 1/10, the “TC (median survival time as compared to untreated controls)” value [2, 14] was 167% and the “TOX (mice which showed toxic lesions at the autopsy)” value [2, 14] was 2/10. For the same molecule, the “TC (median survival time as compared to untreated controls)” value [2, 15] was 100%, the “TOX (mice which showed toxic lesions at the autopsy)” value [2, 15] was 6/10 and the TC ([2]; Table 3, ip, day 1, 2.5 mg./kg.) was 122%. The TC ([2]; Table 3, ip, day 1, 5 mg./kg.) was 155%, the LTS ([2]; Table 3, ip, day 1, 10 mg./kg.) was 2/9 and the TC ([2]; Table 3, ip, day 1, 10 mg./kg.) was 233%. The TOX ([2]; Table 3, ip, day 1, 10 mg./kg.) was 2/9, the TC ([2]; Table 4, i.p. on day 1, 2.5 mg./kg.) was 122% and the TC ([2]; Table 4, i.p. on day 1, 5 mg./kg.) was 155%. For the same molecule, the LTS [2, 16] was 2/9, the TC [2, 16] was 233% and the TOX [2, 16] was 2/9. For the same molecule, the TC ([2]; Table 5, ip, day 1, 2.5 mg./kg.) was 122%, the TC ([2]; Table 5, ip, day 1, 5 mg./kg.) was 155% and the LTS ([2]; Table 5, ip, day 1, 10 mg./kg.) was 2/9. The TC ([2]; Table 5, ip, day 1, 10 mg./kg.) was 233%, the TOX ([2]; Table 5, ip, day 1, 10 mg./kg.) was 2/9 and the “TC (median survival time as compared to untreated controls)” value ([3]; iv, days 1,2,3, 3.5 mg./kg.) was 143%. For the same molecule, the “TOX (mice which showed toxic lesions at the autopsy)” value ([3]; iv, days 1,2,3, 3.5 mg./kg.) was 1/10, the “TC (median survival time as compared to untreated controls)” value ([3]; iv, days 1,2,3, 4.5 mg./kg.) was 171% and the “TOX (mice which showed toxic lesions at the autopsy)” value ([3]; iv, days 1,2,3, 6 mg./kg.) was 4/10. For the same molecule, the TC ([3]; Table 5, first experiment, iv, days 1,2,3, 3.5 mg./kg.) was 157%, the TC ([3]; Table 5, first experiment, iv, days 1,2,3, 4.5 mg./kg.) was 178% and the TC [3, 17] was 143%. The TOX [3, 17] was 1/10, the TC ([3]; Table 5, second experiment, iv, days 1,2,3, 4.5 mg./kg.) was 171% and the “% tumor growth at day 11” value ([4]; 2.5 mg./kg.) was 42%. The “% tumor growth at day 11” value ([4]; 3 mg./kg.) was 33%.

With `CCCCCC(=O)OCC(=O)OCC(=O)C1(O)Cc2c(O)c3c(c(O)c2C(OC2CC(N)C(O)C(C)O2)C1)C(=O)c1c(OC)cccc1C3=O.Cl` (stereo not shown) [adriamycin-14-0-hexanoyl glycolate, Adriamycin-14-0-Hexanoyl Glycolate Hydrochloride] the LTS [1, 6] was 1/10, the TC [1, 6] was 250% and the LTS [1, 7] was 5/10. For the same molecule, the TC [1, 7] was 493%, the LTS [1, 8] was 3/10 and the TC [1, 8] was 346%. For the same molecule, the TC ([1]; Table 4, i.p. on day 1, 16 mg./kg.) was 128%, the TC [2, 6] was 133% and the TC [2, 7] was 144%. The LTS [2, 8] was 1/9, the TC [2, 8] was 155% and the “toxicity compared with adriamycin” value [5] was “less toxic”. For the same molecule, the “activity compared with adriamycin” value ([5]; tumor not given) was “as active as adriamycin”.

For `CCCCCC(=O)SCC(=O)OCC(=O)C1(O)Cc2c(O)c3c(c(O)c2C(OC2CC(N)C(O)C(C)O2)C1)C(=O)c1c(OC)cccc1C3=O.Cl` (stereo not shown) [adriamycin-14-0-hexanoyl thioglycolate, Adriamycin-14-0-Hexanoyl Thioglycolate Hydrochloride], the “antitumor effect compared with adriamycin” value [1] was “marked anti-tumor effect, slightly lower than that of adriamycin”, the LTS ([1]; Table 3, ip, day 1, 2 mg./kg.) was 1/10 and the TC ([1]; Table 3, ip, day 1, 2 mg./kg.) was 153%. For the same molecule, the TOX ([1]; Table 3, ip, day 1, 2 mg./kg.) was 1/10, the LTS ([1]; Table 3, ip, day 1, 4 mg./kg.) was 2/10 and the TC ([1]; Table 3, ip, day 1, 4 mg./kg.) was 196%. The TOX ([1]; Table 3, ip, day 1, 4 mg./kg.) was 1/10, the LTS ([1]; Table 3, ip, day 1, 8 mg./kg.) was 2/10 and the TC ([1]; Table 3, ip, day 1, 8 mg./kg.) was 177%. For the same molecule, the TC ([1]; Table 3, ip, day 1, 16 mg./kg.) was 188%, the TOX ([1]; Table 3, ip, day 1, 16 mg./kg.) was 6/10 and the “antitumor activity compared with adriamycin” value [2] was “marked anti-tumor effect, slightly lower than that of adriamycin”. For the same molecule, the TC ([2]; Table 3, ip, day 1, 4 mg./kg.) was 133%, the TC ([2]; Table 3, ip, day 1, 8 mg./kg.) was 155% and the LTS ([2]; Table 3, ip, day 1, 16 mg./kg.) was 2/9. The TC ([2]; Table 3, ip, day 1, 16 mg./kg.) was 170% and the “toxicity compared with adriamycin” value [5] was “less toxic”.

`CCCCCCCCCCCCCCCCCC(=O)OCC(=O)OCC(=O)C1(O)Cc2c(O)c3c(c(O)c2C(OC2CC(N)C(O)C(C)O2)C1)C(=O)c1c(OC)cccc1C3=O.Cl` (stereo not shown) [adriamycin-14-0-stearoyl glycolate, Adriamycin-14-0-Stearoyl Glycolate Hydrochloride] was tested, and the “antitumor effect compared with adriamycin” value [1] was “not significantly different from that of adriamycin”, the “LTS (long term survivors, > 60 days)” value ([1]; ip, day 1, 0.3 mg./kg.) was 1/10 and the “TC (median survival time as compared to untreated controls)” value ([1]; ip, day 1, 0.3 mg./kg.) was 119%. The “LTS (long term survivors, > 60 days)” value ([1]; ip, day 1, 1.6 mg./kg.) was 2/10, the “TC (median survival time as compared to untreated controls)” value ([1]; ip, day 1, 1.6 mg./kg.) was 222% and the “TOX (mice which showed toxic lesions at the autopsy)” value ([1]; ip, day 1, 1.6 mg./kg.) was 1/10. The “LTS (long term survivors, > 60 days)” value ([1]; ip, day 1, 7.8 mg./kg.) was 1/10, the “TC (median survival time as compared to untreated controls)” value ([1]; ip, day 1, 7.8 mg./kg.) was 187% and the “TOX (mice which showed toxic lesions at the autopsy)” value ([1]; ip, day 1, 7.8 mg./kg.) was 1/10. The “antitumor activity compared with adriamycin” value [2] was “as active as adriamycin”, the “toxicity compared with adriamycin” value [2] was “less toxic” and the “TC (median survival time as compared to untreated controls)” value [2, 9] was 100%. For the same molecule, the “TC (median survival time as compared to untreated controls)” value [2, 10] was 133%, the “TOX (mice which showed toxic lesions at the autopsy)” value [2, 10] was 1/10 and the “TC (median survival time as compared to untreated controls)” value [2, 11] was 133%. The “TC (median survival time as compared to untreated controls)” value [2, 12] was 139%, the “TC (median survival time as compared to untreated controls)” value [2, 13] was 128% and the “TC (median survival time as compared to untreated controls)” value [2, 14] was 150%. For the same molecule, the “TC (median survival time as compared to untreated controls)” value [2, 15] was 150%, the “antitumor activity compared with adriamycin” value [3] was “as active as adriamycin” and the “toxicity compared with adriamycin” value [3] was “less toxic”. For the same molecule, the “TC (median survival time as compared to untreated controls)” value ([3]; iv, days 1,2,3, 4.5 mg./kg.) was 143%, the “TOX (mice which showed toxic lesions at the autopsy)” value ([3]; iv, days 1,2,3, 4.5 mg./kg.) was 1/10 and the “TC (median survival time as compared to untreated controls)” value ([3]; iv, days 1,2,3, 6 mg./kg.) was 186%. For the same molecule, the “TC (median survival time as compared to untreated controls)” value ([3]; iv, days 1,2,3, 7.5 mg./kg.) was 186%, the “TC (median survival time as compared to untreated controls)” value ([3]; iv, days 1,2,3, 9 mg./kg.) was 207% and the “% tumor growth at day 11” value ([4]; 2.5 mg./kg.) was 58%. The “% tumor growth at day 11” value ([4]; 3 mg./kg.) was 58%, the “% tumor growth at day 11” value ([4]; 3.5 mg./kg.) was 52% and the “% tumor growth at day 11” value ([4]; 4 mg./kg.) was 37%.
